# Results published in ChEMBL document CHEMBL1201862, “PubChem BioAssay data set” (2004).
# Active and inactive are the calls of the source.
# How the values were obtained:
# Cytochrome P450 2D6 = Cytochrome P450 2D6 (Homo sapiens, UniProt P10635);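 further: CYP2D6 member of a cytochrome P450 panel assay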
# Cytochrome P450 2C19 = Cytochrome P450 2C19 (Homo sapiens, UniProt P33261); experiment: Cytochrome panel assay with activity outcomes. Panel member name: p450-cyp2c19 Compounds with AC50 equal or less than 10 uM are considered active; assay type: functional
# Sequence of Cytochrome P450 2C19 (P33261 whole entry): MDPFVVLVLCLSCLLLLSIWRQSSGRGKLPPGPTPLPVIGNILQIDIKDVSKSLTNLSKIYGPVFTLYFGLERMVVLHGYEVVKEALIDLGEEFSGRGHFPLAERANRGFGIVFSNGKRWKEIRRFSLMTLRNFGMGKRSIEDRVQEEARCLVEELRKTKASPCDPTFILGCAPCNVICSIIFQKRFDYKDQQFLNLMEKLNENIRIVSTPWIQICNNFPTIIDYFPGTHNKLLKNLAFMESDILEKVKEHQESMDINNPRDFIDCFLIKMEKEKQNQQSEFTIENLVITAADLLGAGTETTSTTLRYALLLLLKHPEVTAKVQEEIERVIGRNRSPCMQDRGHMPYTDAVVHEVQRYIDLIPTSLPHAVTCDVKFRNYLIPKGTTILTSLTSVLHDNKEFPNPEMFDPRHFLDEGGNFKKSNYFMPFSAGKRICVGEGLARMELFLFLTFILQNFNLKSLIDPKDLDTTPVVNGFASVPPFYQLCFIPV
# [1] = viability of uninfected HEp-2 cells – cell-based, HTS, cytotoxicity control for RSV inhibitor project, dose response (AID 2410); assay type: functional; settings: human respiratory syncytial virus
# cells [2] = assay type: functional
# [3] = loss of viability in HepG2 cells – cell-based, CellTiter-Glo, cherry-picked, cytotoxicity control for Shn3 inhibitor project, dose response (AID 624134); assay type: functional
# [4] = reduction of Shn3 3'UTR-driven luciferase in osteoblasts – cell-based, Clone20 osteoblasts, firefly luciferase, cherry-picked, dose response (AID 624132); assay type: functional;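 further: firefly luciferase luminescence from reporter carrying the Shn3 3'UTR in osteoblasts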
# [5] = Luminescence Cell-Based Dose Retest to Confirm Inhibitors of Cancer Stem Cells. [Related pubchem assays (depositor defined):AID2717, AID2721]; assay type: functional; settings: Homo sapiens
# Cytochrome P450 3A4 = Cytochrome P450 3A4 (Homo sapiens, UniProt P08684);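 further: CYP3A4 tested as one member of a cytochrome P450 panel screen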
# Sequence of Cytochrome P450 3A4 (P08684 whole entry): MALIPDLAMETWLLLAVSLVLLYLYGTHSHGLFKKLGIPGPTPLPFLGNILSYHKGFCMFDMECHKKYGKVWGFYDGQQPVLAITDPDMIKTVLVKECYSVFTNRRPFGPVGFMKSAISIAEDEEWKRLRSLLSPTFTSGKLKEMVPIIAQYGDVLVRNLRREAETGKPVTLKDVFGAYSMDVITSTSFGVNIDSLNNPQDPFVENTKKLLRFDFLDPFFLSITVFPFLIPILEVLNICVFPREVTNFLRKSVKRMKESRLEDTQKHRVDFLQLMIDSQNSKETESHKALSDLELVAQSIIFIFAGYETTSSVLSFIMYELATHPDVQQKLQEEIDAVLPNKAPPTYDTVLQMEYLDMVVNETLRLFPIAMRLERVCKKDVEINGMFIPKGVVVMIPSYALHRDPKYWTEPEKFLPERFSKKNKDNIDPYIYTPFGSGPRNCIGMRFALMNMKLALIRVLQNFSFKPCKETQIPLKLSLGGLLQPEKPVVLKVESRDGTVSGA
# [6] = Trypanosoma cruzi growth suppression in host cells – NIH3T3 host cells, beta-gal luminescence, confirmation (AID 2044); assay type: functional, cell-based;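 further: intracellular parasites grown in NIH/3T3 mouse fibroblasts as host cells; luminescent beta-galactosidase reporter signal from transgenic T. cruzi replicating inside host cells; inhibitors lower the luminescence signal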
# Cytochrome P450 1A2 = target: T1, Cytochrome P450 1A2 (Homo sapiens, UniProt P05177);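 further: PubChem cytochrome P450 panel assay, CYP1A2 panel member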
# T1 sequence (P05177 whole entry): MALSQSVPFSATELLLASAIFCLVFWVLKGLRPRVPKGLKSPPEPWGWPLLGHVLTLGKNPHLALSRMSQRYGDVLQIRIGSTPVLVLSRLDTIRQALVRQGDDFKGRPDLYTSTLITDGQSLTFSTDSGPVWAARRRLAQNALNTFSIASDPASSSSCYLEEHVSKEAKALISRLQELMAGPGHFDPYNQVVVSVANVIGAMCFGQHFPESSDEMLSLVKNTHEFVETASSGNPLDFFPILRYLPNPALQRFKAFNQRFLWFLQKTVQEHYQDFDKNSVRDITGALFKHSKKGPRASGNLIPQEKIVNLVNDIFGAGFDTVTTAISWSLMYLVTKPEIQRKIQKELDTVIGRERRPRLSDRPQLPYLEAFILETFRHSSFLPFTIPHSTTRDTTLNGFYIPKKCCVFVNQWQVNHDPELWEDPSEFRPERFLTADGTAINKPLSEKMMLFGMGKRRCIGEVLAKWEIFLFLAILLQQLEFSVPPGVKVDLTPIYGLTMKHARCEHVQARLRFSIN
# [7] = NIH3T3 cell viability loss – ATP luminescence, mouse fibroblasts, counter-screen, dose response (AID 2010); assay type: functional, cell-based;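 further: cells exposed to compound for about 90 hours before reading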
# [8] = non-specific 3'UTR reporter inhibition in Clone20-Shn3RL – cell-based, Renilla luciferase, cherry-picked, counter-screen for Shn3 inhibitor project, dose response (AID 624133); assay type: functional
# Cytochrome P450 2C9 = Cytochrome P450 2C9 (Homo sapiens, UniProt P11712)
# Sequence of Cytochrome P450 2C9 (P11712 whole entry): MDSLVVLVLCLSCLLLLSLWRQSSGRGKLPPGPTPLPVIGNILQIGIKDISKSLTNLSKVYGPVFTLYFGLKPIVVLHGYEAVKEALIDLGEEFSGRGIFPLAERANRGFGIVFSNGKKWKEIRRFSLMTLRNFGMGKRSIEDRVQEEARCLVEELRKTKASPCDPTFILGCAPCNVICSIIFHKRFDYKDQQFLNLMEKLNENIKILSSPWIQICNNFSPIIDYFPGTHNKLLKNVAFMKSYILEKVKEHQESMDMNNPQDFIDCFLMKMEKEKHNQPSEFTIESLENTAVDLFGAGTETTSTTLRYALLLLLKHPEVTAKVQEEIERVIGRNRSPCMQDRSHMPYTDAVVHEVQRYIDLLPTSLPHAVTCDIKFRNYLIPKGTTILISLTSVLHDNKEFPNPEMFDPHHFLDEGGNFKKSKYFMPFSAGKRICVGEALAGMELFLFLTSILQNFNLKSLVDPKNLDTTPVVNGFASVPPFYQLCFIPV
# H4 = experiment: Luminescence Cell-Based Dose Response HTS to Identify Activators of 5'UTR Stem-Loop Driven Prion Protein mRNA Translation in H4 Neuroglioblastoma Cells. [Related pubchem assays: 1829 (Project Summary), 1814 (Primary HTS)]; assay type: functional; settings: Homo sapiens
# [9] = target: T2, Heat shock factor protein 1 (Mus musculus, UniProt P38532); experiment: decrease of HSF1-responsive luciferase luminescence – cell-based, NIH3T3, dose retest, confirmation (AID 2382); assay type: functional;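 further: NIH3T3 fibroblasts with HSF1-driven luciferase reporter stressed by proteasome inhibitor MG132; luminescence from HSF1-driven luciferase expression after 8 hours of MG132 stress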
# T2 sequence (P38532 whole entry): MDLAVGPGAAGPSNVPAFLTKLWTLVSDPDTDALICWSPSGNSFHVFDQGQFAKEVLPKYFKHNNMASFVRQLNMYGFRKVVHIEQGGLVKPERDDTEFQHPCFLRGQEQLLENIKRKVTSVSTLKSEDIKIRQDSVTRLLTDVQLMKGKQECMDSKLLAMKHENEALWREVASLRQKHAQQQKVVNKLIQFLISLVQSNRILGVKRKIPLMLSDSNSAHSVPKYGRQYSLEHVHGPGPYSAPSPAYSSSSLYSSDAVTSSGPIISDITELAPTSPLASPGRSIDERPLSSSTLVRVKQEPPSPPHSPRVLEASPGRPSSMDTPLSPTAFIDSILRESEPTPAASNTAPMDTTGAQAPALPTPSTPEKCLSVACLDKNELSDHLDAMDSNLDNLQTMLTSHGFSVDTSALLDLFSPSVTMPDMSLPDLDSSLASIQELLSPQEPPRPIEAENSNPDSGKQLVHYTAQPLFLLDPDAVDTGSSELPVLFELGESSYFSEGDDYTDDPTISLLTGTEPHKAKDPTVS
# cells [10] = assay type: functional, cell-based
# cells [11] = assay type: functional, cell-based; remark: listed apart in the source
# [12] = viability of HCT116 lacking mutant beta-catenin – cell-based, human colon tumor, dose response (AID 1045); assay type: functional;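 further: HCT116 colon tumor cells with beta catenin knocked out; cells exposed to compound for 60 hours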
# [13] = viability of PTEN-deleted HCT116 cells – cell-based, HCT116 PTEN knockout, dose response (AID 1047); assay type: functional;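 further: HCT116 colon tumor cells with PTEN knocked out; cells exposed to compound for 60 hours before readout; potency for loss of cell viability measured by luminescence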
# Sequence of Cytochrome P450 2D6 (P10635 whole entry): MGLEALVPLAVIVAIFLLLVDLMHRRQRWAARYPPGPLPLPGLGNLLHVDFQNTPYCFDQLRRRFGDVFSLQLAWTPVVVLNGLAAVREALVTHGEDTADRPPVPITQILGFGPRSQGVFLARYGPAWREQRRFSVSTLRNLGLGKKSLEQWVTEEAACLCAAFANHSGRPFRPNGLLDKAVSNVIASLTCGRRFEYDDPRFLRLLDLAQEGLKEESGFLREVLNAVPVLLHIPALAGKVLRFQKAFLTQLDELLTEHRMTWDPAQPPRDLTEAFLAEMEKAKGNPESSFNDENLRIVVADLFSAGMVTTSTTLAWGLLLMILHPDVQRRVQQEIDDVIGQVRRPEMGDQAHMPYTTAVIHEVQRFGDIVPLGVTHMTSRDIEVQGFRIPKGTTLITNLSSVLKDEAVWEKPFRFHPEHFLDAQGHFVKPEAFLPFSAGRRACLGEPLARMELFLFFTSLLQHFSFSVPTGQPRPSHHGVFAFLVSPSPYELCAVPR
smiles,measurement,setting,value
COc1ccc(C2c3c(ncn(CCN4CCOCC4)c3=N)Oc3ccc4ccccc4c32)cc1OC (centres undefined),AC50,Cytochrome P450 2D6,15.8 µM (inconclusive)
same,AC50,Cytochrome P450 2C19; read-out: AC50,25.1 µM (inconclusive)
COc1cc2c(cc1NC(=O)CSc1nnnn1-c1ccccc1)oc1ccccc12,CC50,[1],15.6 µM (active)
CC(C)=CCN1CCN(CCC2=C(C)CCCC2(C)C)CC1CCO (centres undefined),IC50,cells [2],21.8 µM (active)
O=C(O)CC[P+](c1ccccc1)(c1ccccc1)c1ccccc1,AC50,Cytochrome P450 2D6,3.98 µM (inconclusive)
same,AC50,Cytochrome P450 2C19,inconclusive
COc1cccc(C2=CC(c3ccc(OC)c(OC)c3OC)n3nnnc3N2)c1 (centres undefined),CC50,[1],6.56 µM (active)
CC(=O)c1ccc(N2CCC(c3cc(-c4ccc(Cl)cc4)[nH]n3)CC2)c([N+](=O)[O-])c1,AC50,[3],> 70 µM (inactive)
same,AC50,[4],5 µM (active)
same,AC50,[5],2.39 µM (active)
same,AC50,Cytochrome P450 3A4,39.8 µM (inconclusive)
same,EC50,[6],1.13 µM (active)
same,AC50,Cytochrome P450 1A2,2.82 µM (inconclusive)
same,EC50,[7],> 60 µM (inconclusive)
same,AC50,[8],20 µM (active)
O=[N+]([O-])c1ccc(CN2CCN(c3ccc(F)cc3)CC2)o1,IC50,cells [2],< 0.1 µM (active)
Cc1ccc2c(c1)C(c1ccc([N+](=O)[O-])cc1)=NNC(c1ccc(Br)cc1)=N2,CC50,[1],14.7 µM (active)
CCCn1c(N)c(C(=O)CSc2nc(C)cs2)c(=O)n(C)c1=O,AC50,Cytochrome P450 2D6,20 µM (inconclusive)
same,AC50,Cytochrome P450 2C9,28.2 µM (inconclusive)
Cc1ccc2c(CC(=O)N3CCc4ccccc43)coc2c1,EC50,H4,18.5 µM (active)
O=S(=O)(c1ccccc1)N1CCC2(CCCN(c3ccccc3)C2)CC1,AC50,Cytochrome P450 2D6,10 µM (inconclusive)
CCc1nc2sc3ccccc3c(=O)c2c(=O)n1Cc1ccc(OC)cc1,CC50,[1],> 50 µM (active)
same,EC50,[9],> 195 µM (not active)
O=C(NCc1cccs1)C1CC(=O)N(C2CCCC2)C1 (centres undefined),EC50,cells [10],> 350 µM (not active)
same,EC50,cells [11],> 350 µM (not active)
COc1ccc2oc(C(=O)OCC(=O)Nc3ccccc3OC)c(C)c2c1,EC50,cells [10],> 350 µM (not active)
same,EC50,cells [11],40.5 µM (active)
CCCOc1ccc(NC(=O)CC2C(=O)N(CC)C(=S)N2CCCN2CCN(Cc3ccccc3)CC2)cc1 (centres undefined),CC50,[1],14.3 µM (active)
COc1cc2sc3ccc(-c4ccc5[nH]ccc5c4)cc3c(=O)c2cc1OC,EC50,H4,> 120 µM (not active)
N#Cc1nc(-c2cccc3ccccc23)oc1NCC1CCCO1 (centres undefined),CC50,[1],21.7 µM (active)
O=C(Nc1cccc(NC(=O)c2ccc(-c3cccc(Br)c3)o2)c1)c1ccco1,AC50,Cytochrome P450 2D6,17.8 µM (inconclusive)
same,CC50,[1],16 µM (active)
same,EC50,[6],3.69 µM (active)
same,EC50,[7],14.9 µM (active)
O=C(CS(=O)(=O)c1ccccc1)Nc1ccc(N2CCOCC2)cc1,EC50,cells [10],> 350 µM (not active)
same,EC50,cells [11],> 350 µM (not active)
CCOC(=O)c1cc(CC)sc1NC(=O)c1ccc([N+](=O)[O-])c(N2CCOCC2)c1,EC50,[12],34.2 µM (active)
same,EC50,[13],39.9 µM (active)
CC(C)N(CC(N)=O)c1ncnc2sc(-c3ccccc3)cc12,CC50,[1],25.9 µM (active)
CCCCOC(=O)c1ccc(NC(=O)C(=O)NCc2cccnc2)cc1,EC50,cells [10],> 350 µM (not active)
same,EC50,cells [11],> 350 µM (not active)
Cc1ccc(-c2ccc(=O)n(CC(=O)NCc3ccco3)n2)cc1,AC50,Cytochrome P450 2D6,22.4 µM (inconclusive)
same,AC50,Cytochrome P450 3A4,25.1 µM (inconclusive)
same,AC50,Cytochrome P450 1A2,15.8 µM (inconclusive)
COc1cc2ncnc(NCc3cccs3)c2cc1OC,EC50,cells [10],> 350 µM (not active)
same,EC50,cells [11],> 350 µM (not active)
O=C(c1ccc(S(=O)(=O)c2cccc(Cl)c2)c([N+](=O)[O-])c1)N1CCN(Cc2ccccc2)CC1,CC50,[1],6.34 µM (active)
FC(F)c1nnc2ccc(Cl)nn12,IC50,cells [2],7.13 µM (active)
COC(=O)[C@H](CC(C)C)NC(=O)NCCC1=CCCCC1,IC50,cells [2],21.6 µM (active)
COCc1c(C(=O)N/N=C(\C)c2ccc(Cl)s2)nnn1-c1nonc1N,EC50,cells [10],> 350 µM (not active)
same,EC50,cells [11],> 350 µM (not active)
Cc1cccn2c(=O)c(/C=N/Cc3ccco3)c(Nc3ccc(SC(F)F)cc3)nc12,EC50,[12],14 µM (active)
same,EC50,[13],10.7 µM (active)
same,AC50,Cytochrome P450 2C19; read-out: AC50,4.47 µM (inconclusive)
